According to US11458212B2, “Molecular imaging of cancer cells in vivo” (H. Lee Moffitt Cancer Center and Research Institute, Inc., priority 2011, dated 2022):
Read-outs that look alike come from different tables or passages of the source.

What was measured:
[1] = test system: Trp1455/9M-specific CD8 T cells; assay: In vivo cellular immune response assay (immune adjuvant); parameters: species or system B6 mice; conditions: for fluorescence of stained tetramer positive CD8 T cells: day 7; for maximum amount of fluorescently stained tetramer positive CD8 T cells: day 7, peripheral blood, i.v. immunization, n=3
Protocol: To assess the efficacy of T-02 as an immune adjuvant, mice were immunized i.v. with a mixture of 100 μg optimized Trp1455/9M peptide (Guevara-Patino, J. A., et al. J Clin Invest, 2006. 116(5):1382-90), 50 μg anti-CD40 mAb (Clone; FGk-45.5), and 50 μg TLR-2 peptide (T-02, Pam2CSK4, or Pam3CSK4). […] The response of tetramer+ CD8 T cells in the blood was measured on day 7, 21, and 34 by tetramer staining. For tetramer staining, peripheral blood was taken from the submandibular vein and treated briefly with ammonium chloride buffer to lyse red blood cells. Blood cells were stained with FITC-conjugated anti-MHC class II, PerCP Cy5.5-conjugated CD8a (both from eBioscience, San Diego, Calif.), and phycoerythrin-conjugated Trp1455/9M/H-2D^b tetramers (provided by the NIH tetramer Facility, Emory University, Atlanta Ga.) for 40 min in ice. Fluorescence was evaluated using a FACSCalibur™ flow cytometer (BD Biosciences) and analyzed using FlowJo software.
C57BL/6 (B6) mice 6-8 weeks old were purchased from Charles River (Wilmington, Mass.). To assess the efficacy of 10 as an immune adjuvant, B6 mice were immunized i.v. with a mixture (in a volume of 200 μl) of 100 μg optimized Trp1455/9M peptide,[10c] 50 μg anti-CD40 monoclonal antibody (Clone; FGk-45.5), and 50 μg TLR2 agonist (10, Pam2CSK4, or Pam3CSK4). […] The response of tetramer positive CD8 T cells in the blood was measured on day 7, 21 and 34 by tetramer staining. For tetramer staining, peripheral blood was taken from the submandibular vein and treated briefly with ammonium chloride buffer to lyse red blood cells. Blood cells were stained with FITC-conjugated anti-MHC class II, PerCP Cy5.5-conjugated CD8a, and phycoerythrin-conjugated Trp1455/9M/H-2D^b tetramers for 40 min in ice. Fluorescence was evaluated using a FACSCalibur flow cytometer (BD Biosciences) and analyzed using FlowJo software.

[2] = molecular target: TLR2 (Homo sapiens, UniProt O60603); assay: In vitro TLR2 functional bioassay (NF-κB luciferase, HEK293/hTLR2 cells); assay type: cell-based; parameters: host or cells: HEK293 stably transfected with pUNO-hTLR2, transiently transfected with the pNifty-Luc reporter
Excerpt: In Vitro TLR2 Functional Bioassay The in vitro TLR2 functional bioassay was developed and optimized for use in screening soluble compound libraries to identify both TLR2 agonists and antagonists. In this study, the TLR2 functional bioassay was used as a fast high throughput screening to identify TLR2 agonist ligands by measuring the inducing activity of NF-κB. HEK293/hTLR2 cells, highly overexpressing human TLR2, were used along with the parental HEK293, cells as a negative control. Cells were seeded at a density of 40,000 per well using a WellMate® Microplate dispenser (Thermo Fischer Scientific/Matrix) in black 96-well plates with opaque white wells (Perkin Elmer Wallac, Waltham, Mass.) and then incubated at 37° C. On day 2, the cells were transiently transfected with pNifty-Luc (InvivoGen), an NF-κB inducible reporter plasmid expressing the luciferase reporter gene (Zuany-Amorim, C., J., et al. Nat Rev Drug Discov, 2002. 1(10):797-807), using an optimized 4:1 ratio by volume of Fugene® HD Transfection Reagent (Roche Applied Science, Indianapolis, Ind.) to pNifty-Luc plasmid DNA (1 μg/mL). […] On day 4 after 24 hrs of peptide stimulation, luciferase induced activity by the induction of NF-κB was measured. Media was aspirated from the wells using an ELx405 Select plate washer (BioTek, Winooski, Vt.), 150 μg/mL D-luciferin (Gold Biotechnology, St. Louis, Mo.) was dispensed using the microplate dispensor; the plates were incubated at 37° C. for 5 min. The luminescence intensity was measured using the standard luminescence protocol on a Victor™ X4 plate-reader equipped with a plate stacker for readout of multiple plates at a time (PerkinElmer, Waltham, Mass.). For each in vitro TLR2 bioassay, at least three different experiments were performed in triplicate (n=3+). Data were analyzed with GraphPad Prism software and curves were generated with the appropriate nonlinear fit regression analysis.
The in vitro TLR2 functional bioassay was developed and optimized for use in high-throughput screening of soluble compound libraries to identify both TLR2 agonists and antagonists. The bioassay measures the induction of NF-κB signaling via TLR2 in HEK-293/hTLR2 cells and parental HEK-293 cells as a negative control. Cells were seeded at a density of 40,000 per well using a WellMate Microplate dispenser (Thermo Fisher Scientific/Matrix) in black 96-well plates with opaque white wells (PerkinElmer, Waltham, Mass.) and then incubated at 37° C. On day 2, the cells were transiently transfected with pNifty-Luc (InvivoGen, San Diego, Calif.), an NF-κB inducible reporter plasmid expressing the luciferase reporter gene[28] using an optimized 4:1 ratio by volume of FugeneHD Transfection Reagent (Promega, Madison, Wis.) to pNifty-Luc plasmid DNA (1 μg/mL). […] […] On day 4 after 24 h of peptide stimulation, luciferase induced activity by the induction of NF-κB was measured. Media was aspirated from the wells using an ELx405 Select CW plate washer (BioTek, Winooski, Vt.), 150 μg/mL D-luciferin (Gold Biotechnology, St. Louis, Mo.) was dispensed using the microplate dispensor; the plates were incubated at 37° C. for 5 min. The luminescence intensity was measured using the standard luminescence protocol on a Victor X4 Multilabel plate reader equipped with a plate stacker for readout of multiple plates at a time (PerkinElmer, Waltham, Mass.). […] Data were analyzed with GraphPad Prism software and curves were generated with the appropriate nonlinear fit regression analysis.

[3] = dose-response 0.001 ng/mL to 10 μg/mL, read-out: TLR2 Agonist Activity EC50
[4] = log(agonist) vs. normalized response, doses 0.01 ng/mL to 1 μg/mL, read-out: EC50

TLR2, sequence (O60603 21-784): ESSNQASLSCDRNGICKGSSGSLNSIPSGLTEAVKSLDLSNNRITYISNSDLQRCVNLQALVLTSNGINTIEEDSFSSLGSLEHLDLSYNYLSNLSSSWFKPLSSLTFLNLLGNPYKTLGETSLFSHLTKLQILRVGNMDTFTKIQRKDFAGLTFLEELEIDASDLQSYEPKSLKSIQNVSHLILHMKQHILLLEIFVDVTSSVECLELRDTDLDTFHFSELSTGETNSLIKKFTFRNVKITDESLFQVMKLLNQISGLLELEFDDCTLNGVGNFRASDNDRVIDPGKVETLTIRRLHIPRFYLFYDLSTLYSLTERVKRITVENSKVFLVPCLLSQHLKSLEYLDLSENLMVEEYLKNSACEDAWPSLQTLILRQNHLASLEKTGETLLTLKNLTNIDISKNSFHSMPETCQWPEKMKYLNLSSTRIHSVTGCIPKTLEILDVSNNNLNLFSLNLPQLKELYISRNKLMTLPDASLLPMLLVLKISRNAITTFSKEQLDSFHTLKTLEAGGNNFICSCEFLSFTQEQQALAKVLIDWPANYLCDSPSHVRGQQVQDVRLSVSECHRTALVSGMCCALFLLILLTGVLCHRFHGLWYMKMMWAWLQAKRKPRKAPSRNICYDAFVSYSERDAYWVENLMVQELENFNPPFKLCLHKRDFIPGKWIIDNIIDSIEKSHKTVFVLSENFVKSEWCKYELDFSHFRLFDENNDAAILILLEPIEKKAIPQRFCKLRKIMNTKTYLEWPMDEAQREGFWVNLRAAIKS
TLR2, sequence (Q9Y2C9 32-796 partner): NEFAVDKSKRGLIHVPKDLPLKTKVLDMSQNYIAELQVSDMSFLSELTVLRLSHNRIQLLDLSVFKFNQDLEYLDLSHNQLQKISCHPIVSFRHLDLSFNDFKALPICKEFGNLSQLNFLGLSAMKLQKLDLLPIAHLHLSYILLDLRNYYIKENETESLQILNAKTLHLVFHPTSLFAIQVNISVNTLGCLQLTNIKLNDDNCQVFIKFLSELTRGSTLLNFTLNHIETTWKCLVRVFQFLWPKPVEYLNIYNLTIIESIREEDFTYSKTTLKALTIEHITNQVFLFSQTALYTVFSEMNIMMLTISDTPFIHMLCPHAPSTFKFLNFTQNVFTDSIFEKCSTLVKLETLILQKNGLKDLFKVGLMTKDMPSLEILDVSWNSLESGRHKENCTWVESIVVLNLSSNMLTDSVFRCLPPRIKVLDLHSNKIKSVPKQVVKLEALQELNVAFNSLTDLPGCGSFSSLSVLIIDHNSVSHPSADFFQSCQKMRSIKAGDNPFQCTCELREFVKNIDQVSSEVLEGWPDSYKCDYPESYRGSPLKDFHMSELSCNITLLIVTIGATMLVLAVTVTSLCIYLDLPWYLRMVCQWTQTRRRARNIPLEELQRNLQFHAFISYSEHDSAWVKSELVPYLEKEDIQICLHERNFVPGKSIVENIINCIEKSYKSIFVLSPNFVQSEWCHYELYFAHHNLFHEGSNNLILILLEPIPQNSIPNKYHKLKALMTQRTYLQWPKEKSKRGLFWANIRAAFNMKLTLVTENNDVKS

Row | EC50 [2, 3] | EC50 [2, 4] | luciferase activity relative to cells incubated with no ligand ([2]; 24 h post ligand stimulation, n=6) | SMILES | fluorescence of stained tetramer positive CD8 T cells [1] | maximum amount of fluorescently stained tetramer positive CD8 T cells [1]
1 | 3.7 nM | 3.66 nM |  | CCCCCCCCCCCCCCCC(=O)OCC(CSC[C@H](N)C(=O)N[C@@H](CO)C(=O)N[C@@H](CCCCN)C(=O)N[C@@H](CCCCN)C(=O)N[C@@H](CCCCN)C(=O)N[C@@H](CCCCN)C(=O)O)OC(=O)CCCCCCCCCCCCCCC (mixture of isomers) [Pam2CSK4, S-[2,3-bis(palmitoyloxy)-(2RS)-propyl]-[R]-cysteinyl-[S]-seryl-[S]-lysyl-[S]-lysyl-[S]-lysyl-[S]-lysine, reference compound] | High fluorescence | 56.6%
2 | 23 nM | 22.5 nM | 50 fold | CCCCCCCCCCCCCCCC(=O)N[C@@H](CSCC(COC(=O)CCCCCCCCCCCCCCC)OC(=O)CCCCCCCCCCCCCCC)C(=O)N[C@@H](CO)C(=O)N[C@@H](CCCCN)C(=O)N[C@@H](CCCCN)C(=O)N[C@@H](CCCCN)C(=O)N[C@@H](CCCCN)C(=O)O (mixture of isomers) [Pam3CSK4, N-Palmitoyl-S-[2,3-bis(palmitoyloxy)-(2RS)-propyl]-[R]-cysteinyl-[S]-seryl-[S]-lysyl-[S]-lysyl-[S]-lysyl-[S]-lysine, reference compound] | High fluorescence | 51.7%
